The values that follow come from ChEMBL document CHEMBL1201862, “PubChem BioAssay data set” (2004).

As usually defined, the IC50 is the concentration that inhibits the measured activity by half. Broadly, the EC50 is the concentration at which the effect is half-maximal. A word on the AC50: it is the concentration giving half of the maximal activity seen.

The source made the active and inactive calls. Bounds are passed on as bounds.

The target in test [1] is T1, NADPH oxidase 1 (Homo sapiens, UniProt Q9Y5S8). The test can be described thus: Late stage results from the probe development effort to identify inhibitors of NOX1: HEK/293 IC50. [Related pubchem assays: 1796 (Summary AID (NOX1)), 2752 (Primary screen (NOX1 inhibitors, synthesized analogs set 2)), 2664 (Primary screen (NOX1 inhibitors, synthesized analogs)), 1792 (Primary Screen (NOX1)), 2545 (Confirmation screen (NOX1 …. Type of test: functional.
T1 sequence (Q9Y5S8 whole entry): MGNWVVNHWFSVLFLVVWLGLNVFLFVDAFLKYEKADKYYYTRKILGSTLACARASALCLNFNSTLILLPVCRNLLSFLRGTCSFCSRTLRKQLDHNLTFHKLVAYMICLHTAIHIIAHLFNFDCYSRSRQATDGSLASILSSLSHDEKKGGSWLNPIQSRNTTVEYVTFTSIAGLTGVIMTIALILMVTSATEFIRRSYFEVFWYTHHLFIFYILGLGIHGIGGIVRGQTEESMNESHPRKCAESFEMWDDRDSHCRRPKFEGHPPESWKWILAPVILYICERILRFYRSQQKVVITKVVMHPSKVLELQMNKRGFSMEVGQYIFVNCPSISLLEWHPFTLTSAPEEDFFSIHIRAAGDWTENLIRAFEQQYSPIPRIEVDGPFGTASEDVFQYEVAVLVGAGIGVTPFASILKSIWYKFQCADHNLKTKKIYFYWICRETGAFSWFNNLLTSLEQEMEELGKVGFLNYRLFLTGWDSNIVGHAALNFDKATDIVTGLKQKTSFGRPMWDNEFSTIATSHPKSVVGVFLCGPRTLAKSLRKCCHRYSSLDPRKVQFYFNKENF

The target in test [2] is T1, NADPH oxidase 1. Nature of the test: NOX1 inhibitors, concentration-response, dose response, cell-based, luminescence, cherry picks 2 (AID 434997). In kind it is functional.
Test [3] concerns the target Sphingosine 1-phosphate receptor 2 (Homo sapiens, UniProt O95136). Nature of the test: Dose Response Cell Based Assay for Antagonists of the S1P2 Receptor. [Related pubchem assays: 856, 736 ]. Type of test: functional.
The nature of test [4]: microbe, parasite or virus in culture. Type of test: functional. As to conditions: Mycobacterium tuberculosis.
Test [5] can be described thus: M. tuberculosis growth inhibition, HTS (AID 449762). Type of test: functional.
The target of test [6] is E3 ubiquitin-protein ligase Mdm2 (Homo sapiens, UniProt Q00987). Nature of the test: enhancers of MDM2-luciferase reporter signal, concentration-effect titration, project on inhibitors of MDM2 ubiquitin ligase, cellular assay, luminescent readout, 384-well plate format (AID 1394).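 Further: MDM2 E3 inhibitors raise luminescence so EC50 is for signal enhancement.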 In kind it is functional. On the technique in general: In a reporter assay the amount or activity of a reporter protein is the signal.
Chain of E3 ubiquitin-protein ligase Mdm2 (Q00987 whole entry): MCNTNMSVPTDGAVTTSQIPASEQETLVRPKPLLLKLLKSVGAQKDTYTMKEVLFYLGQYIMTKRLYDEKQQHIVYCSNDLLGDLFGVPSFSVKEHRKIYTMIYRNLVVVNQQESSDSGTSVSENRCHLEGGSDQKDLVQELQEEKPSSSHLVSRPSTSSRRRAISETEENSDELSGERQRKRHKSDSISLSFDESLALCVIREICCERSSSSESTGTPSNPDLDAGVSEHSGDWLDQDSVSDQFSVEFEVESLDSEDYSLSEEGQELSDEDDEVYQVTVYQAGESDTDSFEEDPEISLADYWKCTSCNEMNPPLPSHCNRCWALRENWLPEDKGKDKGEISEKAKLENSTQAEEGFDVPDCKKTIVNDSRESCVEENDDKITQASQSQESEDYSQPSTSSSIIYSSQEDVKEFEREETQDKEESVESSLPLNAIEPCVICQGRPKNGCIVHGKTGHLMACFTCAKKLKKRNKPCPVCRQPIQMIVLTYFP

Test [7] has as its target Heat shock protein HSP 90-alpha (Homo sapiens, UniProt P07900). In kind it is functional, organism-based.
Test [8] is described as follows: Luminescent dose response cell-based high throughput screening assay for inhibitors of the Janus kinase 2 mutant JAK2V617F. [Related pubchem assays: 1446 (Primary screen.), 1521 (Confirmation assay.), 1486 (Counter screen.)]. In kind it is functional. A general note: Counterscreens check selectivity or assay interference.
Test [9] has as its target Bifunctional protein GlmU (Mycobacterium tuberculosis, UniProt P9WMN3). The test can be described thus: Inhibitors of Mycobacterial Glucosamine-1-phosphate acetyl transferase (GlmU). Secondary screen. Also on record: species or system Mycobacterium tuberculosis H37Rv.
Test [10] can be described thus: Glucagon-like peptide 1 release potency, NCI-H716 cell line, dose-response, half-maximal inhibitory concentration (AID 1117344). Type of test: functional, cell-based.
The nature of test [11]: Dose-response inhibition of insulin secretion in a rat insulinoma line at 5 mM glucose (AID 1117331). In kind it is functional, cell-based. As to conditions: INS-1E.

Chain of Bifunctional protein GlmU (P9WMN3 whole entry): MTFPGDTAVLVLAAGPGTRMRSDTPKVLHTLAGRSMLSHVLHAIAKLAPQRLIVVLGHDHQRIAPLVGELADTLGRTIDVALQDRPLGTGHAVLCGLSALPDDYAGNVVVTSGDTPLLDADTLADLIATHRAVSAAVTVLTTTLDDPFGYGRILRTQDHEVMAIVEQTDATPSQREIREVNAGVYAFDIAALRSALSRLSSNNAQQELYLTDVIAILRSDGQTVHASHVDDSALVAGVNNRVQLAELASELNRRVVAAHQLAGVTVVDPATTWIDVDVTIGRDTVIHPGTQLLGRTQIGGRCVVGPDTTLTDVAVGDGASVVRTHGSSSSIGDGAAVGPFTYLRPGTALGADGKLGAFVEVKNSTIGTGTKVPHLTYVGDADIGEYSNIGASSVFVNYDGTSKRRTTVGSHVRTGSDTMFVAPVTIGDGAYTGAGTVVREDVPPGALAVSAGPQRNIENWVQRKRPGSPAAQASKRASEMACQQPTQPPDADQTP
Chain of Sphingosine 1-phosphate receptor 2 (O95136 whole entry): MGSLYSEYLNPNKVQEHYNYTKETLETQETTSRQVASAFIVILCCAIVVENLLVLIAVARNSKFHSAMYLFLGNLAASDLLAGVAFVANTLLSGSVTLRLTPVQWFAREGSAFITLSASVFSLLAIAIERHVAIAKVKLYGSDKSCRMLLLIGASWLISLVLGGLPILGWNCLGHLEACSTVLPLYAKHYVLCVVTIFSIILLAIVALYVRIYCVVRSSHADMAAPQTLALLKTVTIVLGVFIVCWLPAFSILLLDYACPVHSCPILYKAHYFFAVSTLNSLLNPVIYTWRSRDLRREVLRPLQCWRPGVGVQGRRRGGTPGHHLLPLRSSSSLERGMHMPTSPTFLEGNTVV

Regarding `CN(C)c1ccc(NC(=O)Nc2ccc(OCc3ccccc3)cc2)cc1`, the figures for the 50% inhibitory concentration (IC50) on NADPH oxidase 1 [1] and on NADPH oxidase 1 [2] were 2.37 µM (active) and 0.23 µM (active), respectively.

Consider `Cc1nc(-c2cccs2)sc1C(=O)Nc1ccc(F)cc1`, for which the half-inhibitory concentration (IC50) in [3] is listed as > 30 µM (not active).

For the compound `CCOc1cc(/C=N\NC(=O)Cn2nc([N+](=O)[O-])cc2C)ccc1OCc1cccc2ccccc12`, in [4], the CC50 was > 40 µM (active). In addition, the half-inhibitory concentration (IC50) in test [5] was > 100 µM (active).

For `CN(C)C(=S)SSC(=S)N(C)C` [THIRAM], in [6], the 50% effective concentration (EC50) is 0.18 µM (active). Further, the AC50 in [7] was 7.74 µM (active). Moreover, the half-maximal inhibitory concentration (IC50) in test [8] is 0.223 µM (active); in [9] it was 89.3 µM (active); in [10], > 40 µM (inactive); in test [11], > 33.3 µM (inactive).
